Reference: patent US11612601B1, “Targeting epidermal growth factor to treat vascular calcification” (THE FLORIDA INTERNATIONAL UNIVERSITY BOARD OF TRUSTEES, priority 2022, dated 2023)

How the values were obtained:
[1] = system: Primary human coronary artery vascular smooth muscle cells; experiment: VSMC intracellular and cytosolic CAV1, EGFR, TNAP (immunoblot, activity assay, confocal); assay type: cell-based; conditions: OS + 2.5 μM, 14 days
Protocol: To assess the activity of intracellular tissue non-specific alkaline phosphatase (TNAP), a colorimetric assay kit (BioVision, K412) was used. VSMCs (n=3) after 14 days and osteoblasts (n=3) after 7 days, were lysed in 120 μL assay buffer. 80 μL of each sample were mixed with 50 μL of 5 mM pNPP solution and incubated for 60 min at 25° C. The colorimetric change resulting from the reaction was detected using a plate reader to measure absorbance at 405 nm. The results were normalized to the total protein for associated samples measured by a BCA protein assay (BioVision, K813).
VSMCs were treated with control, OS, and OS supplemented with tyrphostin AG1478 (2.5 μM) for 14 days. At the experiment endpoint, using a subcellular protein fraction kit for cultured cells (Thermofisher, 78840), cytosolic fraction was isolated according to the manufacturer's protocol. Briefly, VSMCs were harvested using 0.25% trypsin solution and resuspended in cytoplasmic extraction buffer. After 10 min incubation at 4° C., the samples were centrifuged at 1000×g for 5 min and the supernatants were collected as cytosolic fractions. The protein concentration for aortic tissue and VSMC fractions were quantified using a BCA assay and samples were prepared for protein immunoblotting.
After adding Laemmli SDS-sample buffer (1:4 v/v, Boston BioProducts, BP-110R) to each lysate, the samples were denatured at 100° C. for 10 min, loaded into 7.5-12% 1-mm SDS-PAGE gel (15 to 20 μg protein per lane), and run at 170 V. The proteins were then transferred to Trans-Blot turbo nitrocellulose membranes (BIO-RAD, 1704158) at 25 V for 7 min.
To quantify the total protein, the membranes were stained using 2% w/v Ponceau stain (Alfa Aesar, AAJ6074409) for 20 min, followed by one wash with 5% acetic acid and milliQ water for 5 min. After imaging, the intensity of each lane was measured in ImageJ for total protein normalization. Membranes were blocked with 5% w/v bovine serum albumin (HyClone, SH30574.01) in TBS-Tween (1×) for 1 hour. The membranes were incubated with primary antibodies of interest, including CAV1 (1:200, Abcam, ab2910), TNAP (1:200, Invitrogen, 702454), EGFR (1:00, EMD Millipore, 06-874), CD63 (1:200, Abeam, ab231975), GAPDH (1:100, Abcam, ab181602), and Annexin V (1:200, proteintech, 11060-1-AP) overnight at 4° C. After three washes with TBS-Tween (1×), the membranes were incubated with secondary antibody (1:1000, Li-Cor) for 1 hour, followed by three washes with TBS-Tween (1×). The protein bands were visualized with Odyssey CLx scanner (Li-Cor), and quantified using Image Studio Lite software (Li-Cor).
VSMCs were fixed after 14 days of culture using formalin (10%) for 15 min and washed with PBS. A solution of PBS and Triton X (0.1% v/v) permeabilized the plasma membrane for 10 min at room temperature. To avoid non-specific antibody binding, the cells were incubated with a blocking buffer solution, consisting of BSA (1% w/v) and glycine (22.5 mg/mL) in PBS for 30 min at room temperature. Next, the cells were incubated for 2 hours with primary antibody against CAV1 (1:200), and washed three times with PBS. Cells were then incubated with a secondary antibody, Alexa Fluor 594 (1:500, Abeam, ab150080) for 1 hour at room temperature, following by three washes with PBS. The nuclei were stained using DAPI (0.2 mg/mL, Cayman Chemical, 14285). […]

[2] = system: Primary human coronary artery vascular smooth muscle cells; experiment: VSMC osteogenic marker gene expression (qRT-PCR); assay type: cell-based; conditions: OS + 2.5 μM vs OS, 14 days
Protocol: Primary human coronary artery vascular smooth muscle cells, (VSMCs, ATCC, PCS-100-021) were cultured using vascular smooth muscle cell media and growth kit (ATCC, PCS-100-042). VSMCs (passage 4-6) were harvested using 0.05% trypsin-EDTA solution (Caisson Labs, TRL04) and seeded with a density of 26,320 cells.cm^-2 and incubated for 72 hours at 37° C., 5% CO2 with controlled humidity prior to treatment. […] OS media were supplemented with 10 mM β-glycerophosphate (Sigma, 13408-09-8), 0.1 mM L-ascorbic acid (Sigma, 113170-55-1), and 10 nM dexamethasone (Sigma, 50-02-2). To assess the role of EGFR inhibition, tyrphostin AG1478 (Millipore Sigma, T4182) was dissolved in vehicle (DMSO:Methanol, 1:1) and added to OS media to a final concentration of 2.5 μM. An equal volume of vehicle was added to the control and OS groups. […] On days 6, 13, 20, and 27 the media were replaced by an extracellular-vesicle-free (EV-free) media (ultracentrifuged for 15 hours at 100,000×g at 4° C. to remove background EVs common in the serum). After 24 hours, conditioned media were collected on days 7, 14, 21, and 28. […] To perform the quantitative real time polymerase chain reaction (qRT-PCR), Power SYBR Green RNA-to-CT 1-Step Kit (Applied Biosystems, 4391178) was used. […] The relative gene expression levels were calculated using comparative CT method, considering control groups as the reference. […]

Which results are given for `COc1cc2ncnc(Nc3cccc(Cl)c3)c2cc1OC` [AG1478, tyrphostin AG1478]?
intracellular TNAP activity in VSMCs ([1]; compared to control): elevated; cytosolic TNAP in VSMCs ([1]; compared to control (p=0.003) and OS (p=0.005)): elevated; cytosolic CAV1 in VSMCs ([1]; compared to control (p=0.02) and OS (p=0.04)): elevated; total level of intracellular CAV1 in VSMCs ([1]; compared to control group): significantly increased; intracellular EGFR protein in VSMCs ([1]; p=0.84): prevented the OS-induced increase; Gene expression of osteogenic marker ALPL in VSMCs ([2]; p=0.1): no significant differences; Gene expression of osteogenic marker RUNX2 in VSMCs ([2]; p=0.42): no significant differences
